In PMC2360155, “Novel retinoic acid metabolism blocking agents have potent inhibitory activities on human breast cancer cells and tumour growth” (British Journal of Cancer, 2007):
Entries after “also recorded” stand apart in the source; their conditions may differ.

Tests used:
[1] = tested on: MCF-7Ca tumour xenografts; assay: In vivo antitumour study, MCF-7Ca tumour xenografts; design: species or system ovariectomised female athymic nude mice; conditions: for Prevention of formation of MCF-7Ca tumours (in words): 20 mg kg^−1 day^−1 from the day after inoculation
Description: The third in vivo antitumour experiment was conducted with MCF-7Ca tumours. MCF-7Ca were provided by Dr S Chen (City of Hope, Duarte, CA, USA). The tumour xenografts were grown in mice as described previously ([Yue et al, 1994]). Subconfluent cells were scraped into Delbecco's phosphate-buffered saline, collected by centrifugation and resuspended in Matrigel (10 mg ml^−1) at 2.5 × 10^7 cells ml^−1. Each mouse received s.c. inoculations in two sites per flank with 100 μl of cell suspension. Mice in the tumour formation prevention group (n=5) were than injected daily with androstenedione (100 μg day^−1) plus VN/14-1 (20 mg kg^−1 day^−1) in the vehicle for the duration of the experiment. The rest of the mice were injected daily with 100 μg day^−1 of androstenedione. Measurements and treatments began when the tumours reached approximately 300 mm^3, about 6 weeks after cell inoculation. Mice were assigned to groups for treatment so that there was no statistically significant difference in tumour volumes among the groups at the beginning of the treatment. Tumours were measured and volumes calculated as described above. Mice were than injected s.c. daily with the indicated agents: 100 μg per mouse per day (5 × weekly) plus 10 μg per mouse per day (5 × weekly) of letrozole or 200 μg per mouse per day (5 × weekly) of anastrozole and 20 mg kg^−1 day^−1 (5 × weekly) of VN/14-1. The doses of letrozole, anastrozole, androstendione and VN/14-1 used are as determined previously ([Long et al, 2002], [2004]; [Patel et al, 2004]). The mice were treated for the indicated times, after which they were killed by decapitation and blood collected. Tumours and uteri were excised, cleaned, weighed and stored at −80°C for additional analyses.
Figure 10 Effects of VN/14-1 on the formation of MCF-7Ca tumours and effects of VN/14-1, anastrozole and letrozole on the growth of MCF-7Ca xenografts in ovariectomised female athymic nude mice. Mice were inoculated with MCF-7Ca cells as described in Materials and Methods. Beginning on the following day, androstendione (100 μg per mouse per day) was supplemented by s.c. injection for the duration of the experiment. For the tumour formation prevention group (n=5), VN/14-1 (20 mg kg^−1 day^−1) treatment began from the day after inoculation. For the other groups (VN/14-1, anastrazole and letrozole), treatment began after the tumour had reached approximately 300 mm^3 following procedures described in Materials and Methods.

cyclin D1 = assay: Western blotting for cyclin D1 in T47D cells; type: cell-based, human; conditions: 1, 5 and 10 μM, 6 days
Description: At the end of the treatment, cells were scrapped and collected by washing with ice-cold PBS in a centrifuge tube. Cells were centrifuged at 2500 r.p.m. for 10 min, the pellet was again washed with ice-cold PBS and centrifuged. The cell pellet was then suspended in chilled cell lysis buffer (0.1 M Tris–HCl, 0.5% Triton X-100, protease inhibitor cocktail) and sonicated on ice for 10–15 s. The homogenate was kept on ice for 30 min and then centrifuged at 13 000 r.p.m. for 30 min. The supernatant was used as cell lysate. The cell lysates were stored at −80°C. Protein concentration of the cell lysates was determined using Bio-Rad protein assay reagents.
Protein lysates from MCF-7 and T47D cells were subjected to sodium dodecyl sulphate–polyacrylamide gel electrophoresis (SDS–PAGE) and immunoblotted for different proteins. […] Immunoreactive bands were visualised using the enhanced chemiluminescence detection reagents and analysis system (Amersham Bioscences) according to the manufacturer's instructions and quantified by densitometry using ImageQuant software version 5.
Figure 5 Western blotting of whole-cell lysates of treated MCF-7 and T47D cells for the expression of Cyclin D1. […] Numbers below the blot show fold decrease in expression of the protein as analysed by ImageQuant densitometry analysis. […]

## CC1=C(/C=C/C(C)=C/C=C/C(C)=C/C(=O)O)C(C)(C)CCC1n1ccnc1 (centres unmarked) [VN/14-1]
[1]
  Prevention of formation of MCF-7Ca tumours (in words): very effective in preventing the formation of MCF-7Ca tumours
[1]; listed as VN14-1
  Prevention of formation of MCF-7Ca tumours (in words): efficacious in preventing the formation of MCF-7Ca tumours
[1]; 20 mg kg^−1 day^−1 s.c. (5 × weekly), androstenedione supplemented
  Inhibition of growth of established MCF-7Ca tumours (in words): as effective as the clinically used aromatase inhibitors, anastrozole and letrozole; also recorded: as effective as either anastrozole or letrozole
[1]; VN/14-1 treatment, data not shown
  Uterine wet weight: significant reduction in uterine wet weight
Cyclin D1
  Expression of cyclin D1 (in words): significantly downregulated
